Inhibition data for 14 compounds are collected here from PMC9516332 (Frontiers in Oncology, 2022).

Where two headings read alike, the source gives them in different places.

Assay in all cases: Kinase panel profiling at 1 µmol/L (MSA or IMAP), percentage inhibition
Common to all, as to format: biochemical

Assay [1] concerns the target T1, panel of 255 wild-type kinases (Homo sapiens, UniProt O14757).
T1 sequence (O14757 1-476): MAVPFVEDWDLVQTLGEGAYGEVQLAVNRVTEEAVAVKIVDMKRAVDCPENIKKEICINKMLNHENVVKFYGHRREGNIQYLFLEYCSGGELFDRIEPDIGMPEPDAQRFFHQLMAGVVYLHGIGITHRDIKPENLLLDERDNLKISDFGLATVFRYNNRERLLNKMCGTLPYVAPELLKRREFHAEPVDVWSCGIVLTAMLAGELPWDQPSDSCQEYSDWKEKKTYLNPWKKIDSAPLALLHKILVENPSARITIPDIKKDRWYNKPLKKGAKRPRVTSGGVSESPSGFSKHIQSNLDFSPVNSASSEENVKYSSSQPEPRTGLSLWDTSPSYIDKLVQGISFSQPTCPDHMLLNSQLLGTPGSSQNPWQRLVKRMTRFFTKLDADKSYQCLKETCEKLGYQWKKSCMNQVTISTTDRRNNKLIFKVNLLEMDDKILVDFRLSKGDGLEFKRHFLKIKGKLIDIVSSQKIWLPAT
The conditions noted are these: read-out: %-inhibition CHK1.

The target of assay [2] is panel of 255 wild-type kinases (Homo sapiens, UniProt Q16620). Conditions: read-out: %-inhibition at 1 µmol/L, TRKB.
The target of assay [3] is panel of 255 wild-type kinases (Homo sapiens, UniProt Q9NQU5). The conditions noted are these: read-out: %-inhibition, PAK6.
Assay [4] concerns the target T2, panel of 255 wild-type kinases (Homo sapiens, UniProt Q12851).
T2 sequence (Q12851 1-820): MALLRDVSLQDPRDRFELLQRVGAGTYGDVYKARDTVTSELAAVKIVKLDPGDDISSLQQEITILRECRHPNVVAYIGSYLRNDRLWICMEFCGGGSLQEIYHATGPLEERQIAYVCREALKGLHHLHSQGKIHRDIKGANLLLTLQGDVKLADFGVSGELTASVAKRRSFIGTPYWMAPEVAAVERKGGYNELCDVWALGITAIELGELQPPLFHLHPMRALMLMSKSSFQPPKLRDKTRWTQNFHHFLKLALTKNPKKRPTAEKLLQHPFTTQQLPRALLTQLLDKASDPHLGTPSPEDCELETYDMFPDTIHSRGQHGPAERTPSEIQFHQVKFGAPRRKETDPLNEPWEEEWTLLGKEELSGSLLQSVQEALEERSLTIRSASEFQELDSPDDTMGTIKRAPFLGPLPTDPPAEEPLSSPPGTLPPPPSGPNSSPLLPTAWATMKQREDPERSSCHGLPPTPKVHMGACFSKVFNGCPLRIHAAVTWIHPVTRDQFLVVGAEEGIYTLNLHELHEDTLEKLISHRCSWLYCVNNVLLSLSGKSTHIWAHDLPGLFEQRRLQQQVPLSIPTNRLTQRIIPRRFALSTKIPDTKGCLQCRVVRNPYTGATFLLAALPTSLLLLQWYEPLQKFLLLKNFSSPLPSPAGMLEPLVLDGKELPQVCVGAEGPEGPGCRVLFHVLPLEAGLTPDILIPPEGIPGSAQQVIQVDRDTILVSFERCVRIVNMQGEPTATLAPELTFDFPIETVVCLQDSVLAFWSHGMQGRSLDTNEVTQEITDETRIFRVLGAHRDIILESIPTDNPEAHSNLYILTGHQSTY
Conditions: read-out: %-inhibition at 1 µmol/L, MAP4K2.

Assay [5] has as its target panel of 255 wild-type kinases (Homo sapiens, UniProt P08069). Conditions: read-out: %-inhibition at 1 µmol/L, IGF1R.
The target of assay [6] is panel of 255 wild-type kinases (Homo sapiens, UniProt Q9BYP7). Conditions: read-out: %-inhibition at 1 µmol/L, WNK3.
The target in assay [7] is T3, panel of 255 wild-type kinases (Homo sapiens, UniProt Q8NE63).
T3 sequence (Q8NE63 1-616): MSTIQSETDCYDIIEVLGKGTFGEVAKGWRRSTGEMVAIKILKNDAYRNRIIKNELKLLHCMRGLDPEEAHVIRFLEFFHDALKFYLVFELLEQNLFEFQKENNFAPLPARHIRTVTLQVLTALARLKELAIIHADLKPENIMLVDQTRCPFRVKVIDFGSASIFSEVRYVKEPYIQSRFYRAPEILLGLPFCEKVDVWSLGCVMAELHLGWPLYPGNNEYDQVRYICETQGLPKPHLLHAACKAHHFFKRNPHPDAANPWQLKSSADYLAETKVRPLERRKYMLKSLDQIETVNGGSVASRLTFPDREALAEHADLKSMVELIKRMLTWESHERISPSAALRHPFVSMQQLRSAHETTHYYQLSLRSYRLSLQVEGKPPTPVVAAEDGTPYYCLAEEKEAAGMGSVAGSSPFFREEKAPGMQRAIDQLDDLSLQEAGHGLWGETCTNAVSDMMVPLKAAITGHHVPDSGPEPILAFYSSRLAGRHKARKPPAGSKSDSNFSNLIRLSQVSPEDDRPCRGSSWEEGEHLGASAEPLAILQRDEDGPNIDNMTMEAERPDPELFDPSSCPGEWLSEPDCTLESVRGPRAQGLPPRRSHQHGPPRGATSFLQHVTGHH
Conditions: read-out: %-inhibition at 1 µmol/L, HIPK4.

The mark [8] stands for this setting: CHK1 kinase assay, 1 µmol/L single concentration.
The mark [9] stands for this setting: kinase TRKB, 1 µmol/L single concentration.
Setting [10] is: PAK6, 1 µmol/L single concentration.
Setting [11] is: kinase MAP4K2, 1 µmol/L single concentration.
The mark [12] stands for this setting: kinase IGF1R, 1 µmol/L single concentration.
The mark [13] stands for this setting: kinase WNK3, 1 µmol/L single concentration.
Setting [14] is: kinase HIPK4, 1 µmol/L single concentration.

As to `Cc1nc(NC(=O)N2CCC[C@H]2C(N)=O)sc1-c1ccnc(C(C)(C)C(F)(F)F)c1` [alpelisib], the inhibition at 1 µM in assay [1] (setting [8]) was 11%; in assay [2] (setting [9]) it was -2.43%; in assay [3] (setting [10]), 10%; in assay [4] (setting [11]), 5.56%; in assay [5] (setting [12]) it was -0.261%; in assay [6] (setting [13]) it was -3%. In addition, the inhibition at 1 µM in assay [7] (setting [14]) was 64%.

With `Cn1cc(-c2cc3c(N4CCN(c5ncc([C@@](C)(N)c6ccc(F)cc6)cn5)CC4)ncnn3c2)cn1` [avapritinib], the inhibition at 1 µM in assay [1] (setting [8]) was 40%; in assay [2] (setting [9]), 48%; in assay [3] (setting [10]), 9%; in assay [4] (setting [11]), 14%; in assay [5] (setting [12]), 3.41%; in assay [6] (setting [13]) it was -0.0892%. Moreover, the inhibition at 1 µM in assay [7] (setting [14]) came to 46%.

Take `Cn1cnc2c(F)c(Nc3ccc(Br)cc3F)c(C(=O)NOCCO)cc21` [binimetinib]: the inhibition at 1 µM in assay [1] (setting [8]) was 9%; in assay [2] (setting [9]), 3.62%; in assay [3] (setting [10]), 4.75%; in assay [4] (setting [11]), -1.27%; in assay [5] (setting [12]) it was 4.47%; in assay [6] (setting [13]), -2.67%. In assay [7] (setting [14]), the inhibition at 1 µM is -3.77%.

Regarding `CNC(=O)c1ccc(-c2cnc3ncc(Cc4ccc5ncccc5c4)n3n2)cc1F` [capmatinib], the inhibition at 1 µM in assay [1] was 0.209%; in assay [2], 16%; in assay [3], -34%; in assay [4] it was -0.216%; in assay [5] it was 5.7%; in assay [6], -1.77%. Further, the inhibition at 1 µM in assay [7] turned out to be 3.67%.

Take `COc1cc2ncnc(Nc3ccc(F)c(Cl)c3)c2cc1NC(=O)/C=C/CN1CCCCC1` [dacomitinib]: the inhibition at 1 µM in assay [1] (setting [8]) is 10%; in assay [2] (setting [9]), 6%; in assay [3] (setting [10]), 6.65%; in assay [4] (setting [11]) it was -2.38%; in assay [5] (setting [12]), 3.29%; in assay [6] (setting [13]), -2.62%. Besides, the inhibition at 1 µM in assay [7] (setting [14]) amounted to 85%.

For `C[C@H](Nc1ncnc2nc[nH]c12)c1cc2cccc(Cl)c2c(=O)n1-c1ccccc1` [duvelisib], the inhibition at 1 µM is 5.69% in assay [1] (setting [8]); -0.401% in assay [2] (setting [9]); 3.69% in assay [3] (setting [10]); 2.36% in assay [4] (setting [11]); 1.51% in assay [5] (setting [12]); -0.718% in assay [6] (setting [13]). For the same compound, in assay [7] (setting [14]), the inhibition at 1 µM was 5%.

For `COC(=O)N[C@@H](C)CNc1nccc(-c2cn(C(C)C)nc2-c2cc(Cl)cc(NS(C)(=O)=O)c2F)n1` [encorafenib], the inhibition at 1 µM is 14% in assay [1] (setting [8]); 7.42% in assay [2] (setting [9]); 13% in assay [3] (setting [10]); 4% in assay [4] (setting [11]); 6.61% in assay [5] (setting [12]); -1.55% in assay [6] (setting [13]). In assay [7] (setting [14]), the inhibition at 1 µM is 59%.

For `CN1CCN(c2ccc(C(=O)Nc3n[nH]c4ccc(Cc5cc(F)cc(F)c5)cc34)c(NC3CCOCC3)c2)CC1` [entrectinib], the inhibition at 1 µM in assay [1] (setting [8]) worked out at 14%; in assay [3] (setting [10]) it was 15%; in assay [4] (setting [11]), 85%; in assay [5] (setting [12]) it was 98%; in assay [6] (setting [13]), 8.51%; in assay [7] (setting [14]), 14%.

As to `CCc1nc(C(N)=O)c(Nc2ccc(N3CCC(N4CCN(C)CC4)CC3)c(OC)c2)nc1NC1CCOCC1` [gilteritinib], the inhibition at 1 µM in assay [1] (setting [8]) amounted to 22%; in assay [2] (setting [9]) it was 98%; in assay [3] (setting [10]), 22%; in assay [4] (setting [11]) it was 99%; in assay [5] (setting [12]), 99%; in assay [6] (setting [13]), 5%. In addition, in assay [7] (setting [14]), the inhibition at 1 µM amounted to 99%.

`CCN1CCN(c2ccc(Nc3cc(N(C)C(=O)Nc4c(Cl)c(OC)cc(OC)c4Cl)ncn3)cc2)CC1` [infigratinib]: the inhibition at 1 µM is -1.07% in assay [1] (setting [8]); 6% in assay [2] (setting [9]); 10% in assay [3] (setting [10]); 23% in assay [4] (setting [11]); 18% in assay [5] (setting [12]); 1.62% in assay [6] (setting [13]). Also, in assay [7] (setting [14]), the inhibition at 1 µM came to 6%.

Consider `O=C(Nc1cnn2ccc(N3CCC[C@@H]3c3cc(F)ccc3F)nc12)N1CC[C@H](O)C1` [larotrectinib], for which the inhibition at 1 µM is 14% in assay [1] (setting [8]); 102% in assay [2] (setting [9]); 13% in assay [3] (setting [10]); -2% in assay [4] (setting [11]); 3.6% in assay [5] (setting [12]); -0.6% in assay [6] (setting [13]). Further, the inhibition at 1 µM in assay [7] (setting [14]) worked out at 6%.

Turning to `C[C@H]1Oc2cc(cnc2N)-c2c(nn(C)c2C#N)CN(C)C(=O)c2ccc(F)cc21` [lorlatinib], the inhibition at 1 µM amounted to 12% in assay [1] (setting [8]); 14% in assay [3] (setting [10]); 20% in assay [4] (setting [11]); 79% in assay [5] (setting [12]); 6% in assay [6] (setting [13]); 2.62% in assay [7] (setting [14]).

Turning to `CCN1C(=O)N(c2c(F)c(OC)cc(OC)c2F)Cc2cnc3[nH]c(CN4CCOCC4)cc3c21` [pemigatinib], the inhibition at 1 µM in assay [1] (setting [8]) was 12%; in assay [2] (setting [9]), 11%; in assay [3] (setting [10]), 12%; in assay [4] (setting [11]), 8%; in assay [5] (setting [12]) it was 7%; in assay [6] (setting [13]), -0.586%. The inhibition at 1 µM in assay [7] (setting [14]) is 28%.

On to `FC(F)(F)c1ccc(CNc2ccc(Cc3c[nH]c4ncc(Cl)cc34)cn2)cn1` [pexidartinib], for which the inhibition at 1 µM in assay [1] (setting [8]) came to 5.6%; in assay [2] (setting [9]), 75%; in assay [3] (setting [10]), 0.273%; in assay [4] (setting [11]) it was 31%; in assay [5] (setting [12]), 17%; in assay [6] (setting [13]) it was 0.624%. In addition, in assay [7] (setting [14]), the inhibition at 1 µM amounted to 52%.
